Results as given in patent US20100119595A1, “Monounsaturated fatty acids and perhydrocyclopentanophenanthrene nucleus combination molecules, and their precursors, and the use of all of these as weight-loss agents” (priority 2001, published 2010).
Entries after “also recorded” stand apart in the source; their conditions may differ.

Experiments:
[1] = Human study of 2 hydroxy estrone eicosenoate (Example 8); assay type: in vivo; conditions: humans, oral capsule, 0.75 or 0.375 micromoles/kg
Experimental: In this random, double-blind, placebo controlled study, subjects are selected to one of three groups and take a capsule orally every morning containing one of the following: a) sunflower oil (placebo), b) 2 hydroxy estrone eicosenoate dissolved in sunflower oil at a dose of 0.75 micromoles/kg, or c) 2 hydroxy estrone eicosenoate dissolved in sunflower oil at a dose of 0.375 micromoles/kg. […]
Different tests are performed at least five different times during each study, namely at the screening of potential participants, at the beginning of the study, weekly during the trials, at the end of the first 4 week period and at the end of the second 4 week treatment period. • 1) SCREENING: Subjects are screened to exclude hypothyroidism, pregnancy, and heart disease. […] Subjects selected to participate in the studies have the following initial measurements: WEIGHT, WAIST to HIP RATIO, HEIGHT, BMI (calculated), BODY FAT % & TOTAL BODY FAT (via bioelectrical impedance method). […]
Ad libitum diets are followed, and food intake and appetite are assessed daily by the patient with an appropriate questionnaire and booklet. […]

[2] = Rat study of 2 hydroxyestrone eicosenoate (Example 9); assay type: in vivo, Osborne Mendle rats; conditions: rats, oral gavage 21 days, 10, 5, 3.33 or 2.5 micromoles/kg
Experimental: Osborne Mendle rats are selected as the study subjects due to their propensity to gain fat to when fed a high fat diet. An initial measurement of body weight is performed on each rat.
The rats are placed individually in appropriate cages and allowed an ad libitum diet of standard rat chow and water for a 10-day period. During this 10-day period the rats are gavaged daily with 0.1 cc volume of sunflower oil to allow them to become comfortable with being handled and receiving the gavage tube (it takes about 10 days for this acclimation to occur, and is important so that the animals are not stressed by the gavage).
Daily measurements include the following: • 1. Weight • 2. Weight of food consumed • 3. Spillage • 4. Water consumed, both volume and weight
The rats remain confined and are denied out-of-cage activity or exercise for the duration of the experiment other than normal daily activity confined to the cage. This initial 10 day period establishes a pattern and average of weight gain, to acclimate the animals to the gavage procedure, and determine the average food and water consumption for each rat. […]
At the end of the study, rats are anesthetized then sacrificed via guillotine. […] Weight of the uterus is determined. […]

[3] = test system: MCF-7 human breast cancer cell line; test: MCF-7 human breast cancer cell line test; assay type: cell-based
Excerpt: The practical use of any compound given to humans for the treatment of obesity require, of course, that the compound not only be effective, but able to pass the FDA requirements and be approved as a drug suitable for humans. […] One test used to determine reactivity with human breast cancer cells is the “MCF-7 human breast cancer cell line test”. The lower the concentration of drug required to produce agonist activity, the more potential there is for problems with cancer causing &/or promotion in humans A comfortable level in the pharmaceutical industry would be a reactivity in the micromolar range. In the case of oleyl estrone, agonist activity begins at […]; with estrone eicosenoate, agonist activity begins at a ten times greater concentration of 1.0 nanomolar. This low concentration of agonist activity mitigates the possibility that these compounds would gain FDA approval for either drug.

[4] = cited from earlier work
[5] = Rabbit 10-day oral study: body weight and food consumed (Example 1)
Experimental: During the first 3 weeks, rabbits were only weighed and allowed to eat. On the fourth week, all rabbits were given 0.05 cc dose of peanut oil.
Five New Zealand white rabbits were obtained and caged in their natural environment (outside) and fed a cafeteria, ad libitum diet of rabbit chow. […] The appropriate weights of OE or EE were diluted in peanut oil to provide concentrations as follows: 1) OE, 2 mg/0.05 cc; 2) EE, 1 mg/0.05 cc; 3) 0.33 mg/0.05 cc; 4) EE, 0.1mg/0.05 cc, 5) EE, 0.03 mg/0.05 cc
For the initial three weeks, the rabbits were given no medicine or oil. Body weight and food consumed were measured daily; establishing a daily average for food consumed and weight change.
Rabbits received the assigned dose for 10 consecutive days. Rabbit weight (kg) and food eaten (grams) were determined daily.

[6] = test system: human T47D breast cells; conditions: ER-CALUX; cited from earlier work
[7] = Stability of the compound

CCCCCCCC/C=C\CCCCCCCCCC(=O)Oc1cc2c(cc1O)[C@H]1CC[C@]3(C)C(=O)CC[C@H]3[C@@H]1CC2 [2-hydroxy estrone eicosenoate]
appetite [1]: reduces appetite
weight loss, loss of body fat, and/or decrease of body fat% [1]: produces weight loss
body weight &/or body fat [2]: reduction of body weight &/or body fat
food consumption [2]: reduction in food consumption

CCCCCCCC/C=C\CCCCCCCC(=O)Oc1ccc2c(c1)CC[C@@H]1[C@@H]2CC[C@]2(C)C(=O)CC[C@@H]12 [OE, Oleoyl-estrone, reference compound]
concentration at which agonist activity begins ([3]; MCF-7 human breast cancer cells): 0.9 nM
lipid reserves ([4]; Zucker lean rats, one study): lost virtually all their lipid reserves
weight loss ([4]; variety of rats, i.v. or oral, published articles): rapid and sustained weight loss
FINAL WT. ([5]; OE 2 mg/d oral in peanut oil, 10 days, one rabbit, initial wt 3.70 kg): 3.60 kg
WT. Δ w/ Rx 10 days ([5]; OE 2 mg/d oral, 10 days, pre-Rx 10 day avg. +0.121, control +0.14): −0.10 kg
FOOD/DAY AVG. w/ Rx ([5]; OE 2 mg/d oral, 10 days, pre-Rx avg 160.55): 93.8 grams
side effect, behaviour ([5]; OE 2 mg/d oral, after one week of therapy, rabbit): very agitated, mean and aggressive; also recorded: irritability and aggressive behavior

CCCCCCCCCCCCCCCCCC(=O)Oc1ccc2c(c1)CCC1C2CCC2(C)C(=O)CCC12 (stereo not drawn) [stearoyl estrone]
efficacy compared with oleoyl estrone ([4]; Life Sci, 1998: 62 (15): 1349-59): less effective

C[C@]12CC[C@@H]3c4cc(O)c(O)cc4CC[C@H]3[C@@H]1CCC2=O [2 hydroxy estrone]
times less active than estrone [6]: 10,000 times

CCCCCCCC/C=C\CCCCCCCCCC(=O)Oc1cc2c(cc1Br)[C@H]1CC[C@]3(C)C(=O)CC[C@H]3[C@@H]1CC2 (relative stereo) [bromo compound, 2-bromoestrone ester of cis-11-eicosenoic acid]
reactivity in MCF-7 test ([3]; compared with oleoyl estrone): only as reactive as oleoyl estrone
stability [7]: stable
